Measurements taken from PubChem BioAssay (NCI).
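Compound exposure: 48 hours, 5 concentrations, 96-well plates. GI50 marks 50% less growth. Definition used: TGI = concentration required for complete inhibition of growth.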

Legend:
Test in all cases: growth of human tumour cells (NCI), 48 h
M14 melanoma = test system: M14 melanoma
SNB-75 CNS = test system: SNB-75 CNS
COLO 205 colon = test system: COLO 205 colon
SK-MEL-28 melanoma = test system: SK-MEL-28 melanoma
SR leukemia = test system: SR leukemia
786-0 renal = test system: 786-0 renal
HCC-2998 colon = test system: HCC-2998 colon
UACC-62 melanoma = test system: UACC-62 melanoma
PC-3 prostate = test system: PC-3 prostate
UACC-257 melanoma = test system: UACC-257 melanoma
DU-145 prostate = test system: DU-145 prostate
NCI-H460 lung = test system: NCI-H460 lung
RPMI-8226 leukemia = test system: RPMI-8226 leukemia
HCT-15 colon = test system: HCT-15 colon
NCI-H522 lung = test system: NCI-H522 lung
CAKI-1 renal = test system: CAKI-1 renal
SNB-19 CNS = test system: SNB-19 CNS
SF-539 CNS = test system: SF-539 CNS
SK-MEL-5 melanoma = test system: SK-MEL-5 melanoma
HL-60(TB) leukemia = test system: HL-60(TB) leukemia
HOP-92 NSCLC = test system: HOP-92 NSCLC
OVCAR-8 ovarian = test system: OVCAR-8 ovarian
U251 CNS = test system: U251 CNS
MOLT-4 leukemia = test system: MOLT-4 leukemia
HT29 colon = test system: HT29 colon
SF-268 CNS = test system: SF-268 CNS
SN12C renal = test system: SN12C renal
KM12 colon = test system: KM12 colon
UO-31 renal = test system: UO-31 renal
SW-620 colon = test system: SW-620 colon
IGROV1 ovarian = test system: IGROV1 ovarian
TK-10 renal = test system: TK-10 renal
OVCAR-5 ovarian = test system: OVCAR-5 ovarian
HOP-62 NSCLC = test system: HOP-62 NSCLC
LOX IMVI melanoma = test system: LOX IMVI melanoma
SK-MEL-2 melanoma = test system: SK-MEL-2 melanoma
HCT-116 colon = test system: HCT-116 colon
K-562 leukemia = test system: K-562 leukemia
NCI/ADR-RES ovarian = test system: NCI/ADR-RES ovarian
OVCAR-3 ovarian = test system: OVCAR-3 ovarian
BT-549 breast = test system: BT-549 breast
HS 578T breast = test system: HS 578T breast
SF-295 CNS = test system: SF-295 CNS
EKVX NSCLC = test system: EKVX NSCLC
ACHN renal = test system: ACHN renal
NCI-H23 lung = test system: NCI-H23 lung
MCF7 breast = test system: MCF7 breast
SK-OV-3 ovarian = test system: SK-OV-3 ovarian
T-47D breast = test system: T-47D breast
MDA-MB-231 breast = test system: MDA-MB-231 breast
NCI-H226 lung = test system: NCI-H226 lung
OVCAR-4 ovarian = test system: OVCAR-4 ovarian
A549 NSCLC = test system: A549 NSCLC
MDA-MB-435 = test system: MDA-MB-435

`COc1cc2c(c(OC)c1OC)C(=O)[C@@H]1c3ccc([N+](=O)[O-])cc3C(=O)N(CCCBr)[C@H]21` gave a GI50 (M14 melanoma) of 12.1 µM, a TGI (M14 melanoma) of 33.5 µM and a GI50 (SNB-75 CNS) of 9.46 µM. It also gave a TGI (SNB-75 CNS) of 45.1 µM, a GI50 (COLO 205 colon) of 9.86 µM and a TGI (COLO 205 colon) greater than 100 µM. The GI50 (SK-MEL-28 melanoma) was 33.1 µM, the TGI (SK-MEL-28 melanoma) was greater than 100 µM and the GI50 (SR leukemia) was 3.92 µM. The TGI (SR leukemia) was greater than 100 µM, the GI50 (786-0 renal) was 12.5 µM and the TGI (786-0 renal) was 33.1 µM. For the same compound, the GI50 (HCC-2998 colon) was 1.17 µM, the TGI (HCC-2998 colon) was 7.51 µM and the GI50 (UACC-62 melanoma) was greater than 100 µM. For the same compound, the TGI (UACC-62 melanoma) was greater than 100 µM, the GI50 (PC-3 prostate) was 13.1 µM and the TGI (PC-3 prostate) was 55.6 µM. For the same compound, the GI50 (UACC-257 melanoma) was 5.21 µM, the TGI (UACC-257 melanoma) was 30.8 µM and the GI50 (DU-145 prostate) was 14.6 µM. It also gave a TGI (DU-145 prostate) of 53.2 µM, a GI50 (NCI-H460 lung) of 8.15 µM and a TGI (NCI-H460 lung) of 62.2 µM. For the same compound, the GI50 (RPMI-8226 leukemia) was 14.8 µM, the TGI (RPMI-8226 leukemia) was 91.1 µM and the GI50 (HCT-15 colon) was 20.3 µM. For the same compound, the TGI (HCT-15 colon) was greater than 100 µM, the GI50 (NCI-H522 lung) was 4.18 µM and the TGI (NCI-H522 lung) was 25.2 µM. The GI50 (CAKI-1 renal) was 2 µM, the TGI (CAKI-1 renal) was 14.2 µM and the GI50 (SNB-19 CNS) was 22 µM. For the same compound, the TGI (SNB-19 CNS) was greater than 100 µM, the GI50 (SF-539 CNS) was 11.8 µM and the TGI (SF-539 CNS) was 38.7 µM. For the same compound, the GI50 (SK-MEL-5 melanoma) was 11 µM, the TGI (SK-MEL-5 melanoma) was 27.5 µM and the GI50 (HL-60(TB) leukemia) was 64.2 µM. It also gave a TGI (HL-60(TB) leukemia) greater than 100 µM, a GI50 (HOP-92 NSCLC) of 16.1 µM and a TGI (HOP-92 NSCLC) of 78.6 µM. It also gave a GI50 (OVCAR-8 ovarian) of 10.2 µM, a TGI (OVCAR-8 ovarian) of 37.6 µM and a GI50 (U251 CNS) of 23.3 µM. It also gave a TGI (U251 CNS) greater than 100 µM, a GI50 (MOLT-4 leukemia) of 19.8 µM and a TGI (MOLT-4 leukemia) greater than 100 µM. For the same compound, the GI50 (HT29 colon) was 14.2 µM, the TGI (HT29 colon) was greater than 100 µM and the GI50 (SF-268 CNS) was 8.6 µM. The TGI (SF-268 CNS) was 41.6 µM, the GI50 (SN12C renal) was 7.67 µM and the TGI (SN12C renal) was 29.9 µM. The GI50 (KM12 colon) was 25.7 µM, the TGI (KM12 colon) was greater than 100 µM and the GI50 (UO-31 renal) was 4.49 µM. For the same compound, the TGI (UO-31 renal) was 25.7 µM, the GI50 (SW-620 colon) was 20 µM and the TGI (SW-620 colon) was greater than 100 µM. For the same compound, the GI50 (IGROV1 ovarian) was 3.41 µM, the TGI (IGROV1 ovarian) was 21.3 µM and the GI50 (TK-10 renal) was 8.04 µM. For the same compound, the TGI (TK-10 renal) was 34.9 µM, the GI50 (OVCAR-5 ovarian) was 31 µM and the TGI (OVCAR-5 ovarian) was 91.9 µM. For the same compound, the GI50 (HOP-62 NSCLC) was 13.9 µM, the TGI (HOP-62 NSCLC) was 41.4 µM and the GI50 (LOX IMVI melanoma) was 19.5 µM. It also gave a TGI (LOX IMVI melanoma) greater than 100 µM, a GI50 (SK-MEL-2 melanoma) of 19.7 µM and a TGI (SK-MEL-2 melanoma) of 59.8 µM. For the same compound, the GI50 (HCT-116 colon) was 4.59 µM, the TGI (HCT-116 colon) was 51 µM and the GI50 (K-562 leukemia) was 30.6 µM. For the same compound, the TGI (K-562 leukemia) was greater than 100 µM, the GI50 (NCI/ADR-RES ovarian) was 11 µM and the TGI (NCI/ADR-RES ovarian) was 44.9 µM. The GI50 (OVCAR-3 ovarian) was 2.02 µM, the TGI (OVCAR-3 ovarian) was 12.4 µM and the GI50 (BT-549 breast) was 14.6 µM. For the same compound, the TGI (BT-549 breast) was 55.9 µM, the GI50 (HS 578T breast) was 5.71 µM and the TGI (HS 578T breast) was 35.5 µM. For the same compound, the GI50 (SF-295 CNS) was 2.04 µM, the TGI (SF-295 CNS) was 19.7 µM and the GI50 (EKVX NSCLC) was 12.7 µM. It also gave a TGI (EKVX NSCLC) of 61.6 µM, a GI50 (ACHN renal) of 15.2 µM and a TGI (ACHN renal) of 58.5 µM. It also gave a GI50 (NCI-H23 lung) of 15.4 µM, a TGI (NCI-H23 lung) of 35.8 µM and a GI50 (MCF7 breast) of 4.71 µM. The TGI (MCF7 breast) was greater than 100 µM, the GI50 (SK-OV-3 ovarian) was 22.3 µM and the TGI (SK-OV-3 ovarian) was 74.5 µM. For the same compound, the GI50 (T-47D breast) was 7.88 µM, the TGI (T-47D breast) was greater than 100 µM and the GI50 (MDA-MB-231 breast) was 2.99 µM. The TGI (MDA-MB-231 breast) was 25.3 µM, the GI50 (NCI-H226 lung) was 13.6 µM and the TGI (NCI-H226 lung) was 49.7 µM. For the same compound, the GI50 (OVCAR-4 ovarian) was 17.1 µM, the TGI (OVCAR-4 ovarian) was 64.2 µM and the GI50 (A549 NSCLC) was 12.3 µM. For the same compound, the TGI (A549 NSCLC) was 45.5 µM, the GI50 (MDA-MB-435) was 2.79 µM and the TGI (MDA-MB-435) was 14.7 µM.
